One assay concerns the target KRAS G12C (Homo sapiens (Human), UniProt P01116, C118A/G12C). Nature of the assay: 2 h coupled exchange assay. The assay is classed as biochemical. Particulars: Avg 2 h Coupled exchange IC50, 2 h compound pre-incubation. The method, then: The term “2 h coupled exchange assay” or “20 h coupled exchange assay” as used herein refers to the assay described in the Section entitled “BIOLOGICAL EVALUATION.”

Assay [1] concerns MIA PaCa-2 (human pancreatic carcinoma) cells. In words: Cell Viability Assay (CellTiter-Glo), MIA PaCa-2. Particulars: Homo sapiens, MIA PaCa-2, 72 h. The class given is cell-based. As to the method:
Serially-diluted compound or DMSO was added to the cells, and plates were incubated at 37° C., 5% CO2 for 72 h. Cell viability was measured using a CellTiter-Glo® Luminescent Cell Viability Assay kit (Promega) according to the manufacturer's protocol. The luminescence signal of treated samples was normalized to DMSO control, and data were analyzed using a 4-parameter logistic model to calculate IC50 values.
A general note: In ATP-based viability assays light output follows the ATP content of the culture.

Assay [2] has as its system A549 (human lung carcinoma) cells. In words: Cell Viability Assay (CellTiter-Glo), A549. The assay is classed as cell-based. Particulars: Homo sapiens, A549, 72 h. In outline: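 Seeding at 1.67E+04 cells/mL is followed by overnight attachment at 37° C., 5% CO2. Serially diluted compound is added for 72 h. Viability is read by CellTiter-Glo luminescence, scaled to DMSO and fitted (4-parameter logistic) to give IC50.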

pIC50: −log10 of the molar value.

These results are taken from patent publication US20240059703A1 (AMGEN INC., priority 2021, published 2024).

One may read the pIC50 as the IC50 on a negative log10 scale, so that one unit is a factor of ten. A low value points to a large IC50.

KRAS G12C, sequence (P01116 other isoform, or with tags, fused parts or gaps G12C/C118A): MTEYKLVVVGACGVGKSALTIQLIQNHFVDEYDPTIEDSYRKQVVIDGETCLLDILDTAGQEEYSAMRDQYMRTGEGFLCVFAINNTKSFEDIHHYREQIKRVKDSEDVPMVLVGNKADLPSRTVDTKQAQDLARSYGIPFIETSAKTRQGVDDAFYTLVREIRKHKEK

`C=CC(=O)N1CC2(CCN(c3nc4c(c(-c5c(C)c(Cl)cc6cnn(C)c56)c3C#N)COC(C)(C)C4)C2)C1` [Example 14-92, 4-(5-chloro-1,6-dimethyl-1H-indazol-7-yl)-7,7-dimethyl-2-(2-(2-propenoyl)-2,6-diazaspiro[3.4]octan-6-yl)-7,8-dihydro-5H-pyrano[4,3-b]pyridine-3-carbonitrile]: the figures for the pIC50 (at KRAS G12C; in assay [1]; in assay [2]) were 7.55, 8.05 and below 5.30, respectively.
For `C=CC(=O)N1CC2(CCN(c3nc4c(c(-c5ccc(F)cc5F)c3C)CC[C@@H](c3c(C)cnn3C)C4)C2)C1` [Example 14-93, 1-(6-((7R)-4-(2,4-difluorophenyl)-7-(1,4-dimethyl-1H-pyrazol-5-yl)-3-methyl-5,6,7,8-tetrahydro-2-quinolinyl)-2,6-diazaspiro[3.4]octan-2-yl)-2-propen-1-one] the same measures were 6.87, 6.45 and 4.91.
The matching figures for `C=CC(=O)N1CC2(CCN(c3nc4c(c(-c5cccc(F)c5O)c3C)CC[C@@H](c3c(C)cnn3C)C4)C2)C1` [Example 14-94, 1-(6-((7R)-7-(1,4-dimethyl-1H-pyrazol-5-yl)-4-(3-fluoro-2-hydroxyphenyl)-3-methyl-5,6,7,8-tetrahydro-2-quinolinyl)-2,6-diazaspiro[3.4]octan-2-yl)-2-propen-1-one]: 6.64, 6.93 and 4.84.
The matching figures for `C=CC(=O)N1CC2(CCN(c3nc4c(c(-c5cccc(F)c5O)c3C)CC[C@H](c3c(C)cnn3C)C4)C2)C1` [Example 14-95, 1-(6-((7S)-7-(1,4-dimethyl-1H-pyrazol-5-yl)-4-(3-fluoro-2-hydroxyphenyl)-3-methyl-5,6,7,8-tetrahydro-2-quinolinyl)-2,6-diazaspiro[3,4]octan-2-yl)-2-propen-1-one]: 6.16, 5.47 and 4.81.
`C=CC(=O)N1CC2(CCN(c3nc4c(c(-c5ccccc5Cl)c3C)CCC(c3c(C)cnn3C)C4)C2)C1` [Example 14-96, 1-(6-((7R)-4-(2-chlorophenyl)-7-(1,4-dimethyl-1H-pyrazol-5-yl)-3-methyl-5,6,7,8-tetrahydro-2-quinolinyl)-2,6-diazaspiro[3.4]octan-2-yl)-2-propen-1-one|1-(6-((7S)-4-(2-chlorophenyl)-7-(1,4-dimethyl-1H-pyrazol-5-yl)-3-methyl-5,6,7,8-tetrahydro-2-quinolinyl)-2,6-diazaspiro[3.4]octan-2-yl)-2-propen-1-one]: the figures for the pIC50 (against KRAS G12C; in assay [1]; in assay [2]) were 6.26, 6.07 and 4.87, respectively.
With `C=CC(=O)N1CC2(CCN(c3cc4c(c(-c5c(C)ccc6[nH]ncc56)c3C)COCC4)C2)C1` [Example 14-104, 1-(6-(7-methyl-8-(5-methyl-1H-indazol-4-yl)-3,4-dihydro-1H-2-benzopyran-6-yl)-2,6-diazaspiro[3.4]octan-2-yl)-2-propen-1-one], the figures for the pIC50 (at KRAS G12C; in assay [1]; in assay [2]) were 6.62, 6.68 and below 5.30, respectively.
The matching figures for `C=CC(=O)N1CC2(CCN(c3nc4cc(-c5ccnn5C)ccc4c(-c4c(C)ccc5[nH]ncc45)c3C#N)C2)C1` [Example 15-1, 4-(5-methyl-1H-indazol-4-yl)-7-(1-methyl-1H-pyrazol-5-yl)-2-(2-(2-propenoyl)-2,6-diazaspiro[3.4]octan-6-yl)-3-quinolinecarbonitrile]: 7.51, 6.84 and 5.48.
`C=CC(=O)N1CC2(CCN(c3nc4cc(-c5scnc5C)ccc4c(-c4c(C)ccc5[nH]ncc45)c3C)C2)C1` [Example 15-3, 1-(6-(3-methyl-4-(5-methyl-1H-indazol-4-yl)-7-(4-methyl-1,3-thiazol-5-yl)-2-quinolinyl)-2,6-diazaspiro[3.4]octan-2-yl)-2-propen-1-one]: the values for the pIC50 (against KRAS G12C; in assay [1]; in assay [2]) were 7.21, 5.95 and below 5.30, respectively.
The matching figures for `C=CC(=O)N1CC2(CCN(c3nc4cc(-c5nccn5C)ccc4c(-c4ccccc4Cl)c3C#N)C2)C1` [Example 15-7, 4-(2-chlorophenyl)-7-(1-methyl-1H-imidazol-2-yl)-2-(2-(2-propenoyl)-2,6-diazaspiro[3.4]octan-6-yl)-3-quinolinecarbonitrile]: 6.94, 6.02 and 5.38.
The matching figures for `C=CC(=O)N1CC2(CCN(c3nc4cc(-c5ccnn5C)ccc4c(-c4ccccc4Cl)c3C)C2)C1` [Example 16-1, 1-(6-(4-(2-chlorophenyl)-3-methyl-7-(1-methyl-1H-pyrazol-5-yl)quinolin-2-yl)-2,6-diazaspiro[3.4]octan-2-yl)prop-2-en-1-one]: 6.55, below 5.30 and below 5.30.
In the case of `C=CC(=O)N1CC2(CCN(c3nc4cc(-c5ccnn5C)ccc4c(-c4cc(O)ccc4Cl)c3C)C2)C1` [Example 16-9, 1-(6-(4-(2-chloro-5-hydroxyphenyl)-3-methyl-7-(1-methyl-1H-pyrazol-5-yl)-2-quinolinyl)-2,6-diazaspiro[3.4]octan-2-yl)-2-propen-1-one], the pIC50 on KRAS G12C is 7.22; in assay [1], 5.88; in assay [2], below 5.30.
Consider `C=CC(=O)N1CC2(C1)CN(c1nc3cc(-c4ccnn4C)ccc3c(-c3ccccc3Cl)c1C#N)CC2(F)F` [Example 17-2, 4-(2-chlorophenyl)-2-(8,8-difluoro-2-(2-propenoyl)-2,6-diazaspiro[3.4]octan-6-yl)-7-(1-methyl-1H-pyrazol-5-yl)-3-quinolinecarbonitrile], for which the pIC50 was 7.01 at KRAS G12C, 5.73 in assay [1] and 5.52 in assay [2].
For `C=CC(=O)N1CC2(CCN(c3nc4cc(-n5ccnc5C)ccc4c(-c4ccccc4Cl)c3C#N)C2)C1` [Example 17-3, 4-(2-chlorophenyl)-7-(2-methyl-1H-imidazol-1-yl)-2-(2-(2-propenoyl)-2,6-diazaspiro[3.4]octan-6-yl)-3-quinolinecarbonitrile] the same measures were 7.44, 6.16 and 5.73.
For `C=CC(=O)N1CC2(CCN(c3nc4cc(-n5ccnc5C)ccc4c(-c4ccccc4F)c3C#N)C2)C1` [Example 17-5, 4-(2-fluorophenyl)-7-(2-methyl-1H-imidazol-1-yl)-2-(2-(2-propenoyl)-2,6-diazaspiro[3.4]octan-6-yl)-3-quinolinecarbonitrile] the same measures were 7.15, 5.90 and 5.35.
The matching figures for `C=CC(=O)N1CC2(CCN(c3nc4cc(-n5cncc5C)ccc4c(-c4ccccc4F)c3C#N)C2)C1` [Example 17-6, 4-(2-fluorophenyl)-7-(5-methyl-1H-imidazol-1-yl)-2-(2-(2-propenoyl)-2,6-diazaspiro[3.4]octan-6-yl)-3-quinolinecarbonitrile]: 6.83, 5.66 and 5.36.
In the case of `C=CC(=O)N1CC2(CCN(c3nc4cc(-n5cncc5C)ccc4c(-c4ccccc4Cl)c3C#N)C2)C1` [Example 17-7, 4-(2-chlorophenyl)-7-(5-methyl-1H-imidazol-1-yl)-2-(2-(2-propenoyl)-2,6-diazaspiro[3.4]octan-6-yl)-3-quinolinecarbonitrile], the pIC50 against KRAS G12C is 6.90; in assay [1], 5.74; in assay [2], 5.51.
